# Assay results as given in ChEMBL document CHEMBL1201862, “PubChem BioAssay data set” (2004).
#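 Method: 48-hour compound exposure of cells in 96-well plates, five concentrations, linear interpolation of endpoints. At the GI50, growth is halved.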 Calls of active or inactive are those of the source. Cut-off read from the data, not from the text of the source: active = GI50 up to about 1.1 µM and inactive = higher.
# What was measured:
# Assay in all cases: NCI tumour cell line growth inhibition, 48 h
# 786-0 = system: 786-0
# A498 = system: A498
# A549 = system: A549
# ACHN = system: ACHN
# BT-549 = system: BT-549
# CAKI-1 = system: CAKI-1
# CCRF-CEM = system: CCRF-CEM
# COLO 205 = system: COLO 205
# DLD-1 = system: DLD-1
# DMS-114 = system: DMS-114
# DMS-273 = system: DMS-273
# DU-145 = system: DU-145
# EKVX = system: EKVX
# HCC 2998 = system: HCC 2998
# HCT-116 = system: HCT-116
# HCT-15 = system: HCT-15
# HL-60 = system: HL-60
# HOP-62 = system: HOP-62
# HOP-92 = system: HOP-92
# HT-29 = system: HT-29
# Hs-578T = system: Hs-578T
# IGROV-1 = system: IGROV-1
# K562 = system: K562
# KM-20L2 = system: KM-20L2
# KM12 = system: KM12
# LOX IMVI = system: LOX IMVI
# LXFL 529 = system: LXFL 529
# M14 = system: M14
# M19-MEL = system: M19-MEL
# MCF7 = system: MCF7
# MDA-MB-231 = system: MDA-MB-231
# MDA-MB-435 = system: MDA-MB-435
# MDA-N = system: MDA-N
# MOLT-4 = system: MOLT-4
# Malme-3M = system: Malme-3M
# NCI-H226 = system: NCI-H226
# NCI-H23 = system: NCI-H23
# NCI-H460 = system: NCI-H460
# NCI-H522 = system: NCI-H522
# NCI/ADR-RES = system: NCI/ADR-RES
# OVCAR-3 = system: OVCAR-3
# OVCAR-4 = system: OVCAR-4
# OVCAR-5 = system: OVCAR-5
# OVCAR-8 = system: OVCAR-8
# PC-3 = system: PC-3
# RPMI-8226 = system: RPMI-8226
# RXF 393 = system: RXF 393
# SF-268 = system: SF-268
# SF-295 = system: SF-295
# SF-539 = system: SF-539
# SK-MEL-28 = system: SK-MEL-28
# SK-MEL-2 = system: SK-MEL-2
# SK-MEL-5 = system: SK-MEL-5
# SK-OV-3 = system: SK-OV-3
# SN12C = system: SN12C
# SNB-19 = system: SNB-19
# SNB-75 = system: SNB-75
# SNB-78 = system: SNB-78
# SR = system: SR
# SW-620 = system: SW-620
# T47D = system: T47D
# TK-10 = system: TK-10
# U-251 = system: U-251
# UACC-257 = system: UACC-257
# UACC-62 = system: UACC-62
# UO-31 = system: UO-31
compound,measurement,setting,value
Cc1cc(NC(=O)NC(=O)c2ccccc2NC(=O)C(C)N)ccc1Oc1ncc(Br)cn1 (stereo not drawn),GI50,786-0,55.9 nM (active)
same,GI50,A498,25 nM (active)
same,GI50,A549,153 nM (active)
same,GI50,ACHN,1220 nM (inactive)
same,GI50,BT-549,26800 nM (inactive)
same,GI50,CAKI-1,17.3 nM (active)
same,GI50,CCRF-CEM,61.9 nM (active)
same,GI50,COLO 205,71.9 nM (active)
same,GI50,DLD-1,331 nM (active)
same,GI50,DMS-114,1130 nM (inactive)
same,GI50,DMS-273,46 nM (active)
same,GI50,DU-145,136 nM (active)
same,GI50,EKVX,335 nM (active)
same,GI50,HCC 2998,298 nM (active)
same,GI50,HCT-116,714 nM (active)
same,GI50,HCT-15,310 nM
same,GI50,HL-60,13.1 nM (active)
same,GI50,HOP-62,30.6 nM (active)
same,GI50,HOP-92,1920 nM (inactive)
same,GI50,HT-29,116 nM (active)
same,GI50,Hs-578T,15.9 nM (active)
same,GI50,IGROV-1,153 nM (active)
same,GI50,K562,136 nM (active)
same,GI50,KM-20L2,94.6 nM (active)
same,GI50,KM12,169 nM (active)
same,GI50,LOX IMVI,173 nM (active)
same,GI50,LXFL 529,396 nM (active)
same,GI50,M14,130 nM (active)
same,GI50,M19-MEL,292 nM (active)
same,GI50,MCF7,152 nM (active)
same,GI50,MDA-MB-231,143 nM (active)
same,GI50,MDA-MB-435,25.4 nM (active)
same,GI50,MDA-N,20.2 nM (active)
same,GI50,MOLT-4,230 nM (active)
same,GI50,Malme-3M,188 nM (active)
same,GI50,NCI-H226,70.3 nM (active)
same,GI50,NCI-H23,172 nM (active)
same,GI50,NCI-H460,179 nM (active)
same,GI50,NCI-H522,30.1 nM (active)
same,GI50,NCI/ADR-RES,20.8 nM (active)
same,GI50,OVCAR-3,19.6 nM (active)
same,GI50,OVCAR-4,5360 nM (inactive)
same,GI50,OVCAR-5,1090 nM (active)
same,GI50,OVCAR-8,141 nM (active)
same,GI50,PC-3,39.1 nM (active)
same,GI50,RPMI-8226,207 nM (active)
same,GI50,RXF 393,11.1 nM (active)
same,GI50,SF-268,408 nM (active)
same,GI50,SF-295,25.6 nM (active)
same,GI50,SF-539,15.8 nM (active)
same,GI50,SK-MEL-28,184 nM (active)
same,GI50,SK-MEL-2,153 nM (active)
same,GI50,SK-MEL-5,45.7 nM (active)
same,GI50,SK-OV-3,17.8 nM (active)
same,GI50,SN12C,88.5 nM (active)
same,GI50,SNB-19,248 nM (active)
same,GI50,SNB-75,< 10 nM (active)
same,GI50,SNB-78,146 nM (active)
same,GI50,SR,111 nM (active)
same,GI50,SW-620,185 nM (active)
same,GI50,T47D,15100 nM (inactive)
same,GI50,TK-10,1220 nM (inactive)
same,GI50,U-251,202 nM (active)
same,GI50,UACC-257,547 nM (active)
same,GI50,UACC-62,69.3 nM (active)
same,GI50,UO-31,216 nM (active)
NC(CCCC(N)P(=O)(O)O)C(=O)O (stereo not drawn),GI50,A498,> 100000 nM (inactive)
same,GI50,A549,> 10000 nM (inactive)
same,GI50,ACHN,> 100000 nM (inactive)
same,GI50,CCRF-CEM,> 100000 nM (inactive)
same,GI50,DMS-114,> 100000 nM (inactive)
same,GI50,DMS-273,> 100000 nM (inactive)
same,GI50,EKVX,> 100000 nM (inactive)
same,GI50,HCT-116,> 100000 nM (inactive)
same,GI50,HL-60,> 100000 nM (inactive)
same,GI50,HOP-62,> 100000 nM (inactive)
same,GI50,HOP-92,> 100000 nM (inactive)
same,GI50,HT-29,> 100000 nM (inactive)
same,GI50,IGROV-1,> 100000 nM (inactive)
same,GI50,KM-20L2,> 100000 nM (inactive)
same,GI50,KM12,> 100000 nM (inactive)
same,GI50,M14,> 100000 nM (inactive)
same,GI50,M19-MEL,> 100000 nM (inactive)
same,GI50,MOLT-4,> 100000 nM (inactive)
same,GI50,NCI-H226,> 100000 nM (inactive)
same,GI50,NCI-H23,> 100000 nM (inactive)
same,GI50,NCI-H460,> 100000 nM (inactive)
same,GI50,NCI-H522,> 100000 nM (inactive)
same,GI50,OVCAR-5,> 100000 nM (inactive)
same,GI50,OVCAR-8,> 100000 nM (inactive)
same,GI50,RXF 393,> 100000 nM (inactive)
same,GI50,SF-268,> 100000 nM (inactive)
same,GI50,SF-295,> 100000 nM (inactive)
same,GI50,SK-MEL-28,> 100000 nM (inactive)
same,GI50,SK-OV-3,> 100000 nM (inactive)
same,GI50,SNB-19,> 100000 nM (inactive)
same,GI50,SNB-78,> 100000 nM (inactive)
same,GI50,SR,> 100000 nM (inactive)
same,GI50,TK-10,> 100000 nM (inactive)
same,GI50,U-251,> 100000 nM (inactive)
same,GI50,UACC-257,> 100000 nM (inactive)
same,GI50,UACC-62,> 100000 nM (inactive)
same,GI50,UO-31,> 100000 nM (inactive)
